Target: T1, Free fatty acid receptor 4 (Homo sapiens, UniProt Q5NUL3)
T1 sequence (Q5NUL3 whole entry): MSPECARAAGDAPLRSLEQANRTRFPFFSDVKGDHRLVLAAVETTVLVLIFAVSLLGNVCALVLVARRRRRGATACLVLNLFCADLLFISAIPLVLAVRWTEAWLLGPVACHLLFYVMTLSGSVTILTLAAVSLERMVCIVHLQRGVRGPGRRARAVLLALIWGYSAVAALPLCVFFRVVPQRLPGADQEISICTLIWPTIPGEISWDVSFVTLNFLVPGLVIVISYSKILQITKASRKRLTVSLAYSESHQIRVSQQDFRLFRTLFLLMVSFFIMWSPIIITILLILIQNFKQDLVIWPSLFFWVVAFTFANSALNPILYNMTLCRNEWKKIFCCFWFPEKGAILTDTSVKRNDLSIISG
Assay: GPR120 pERK assay: For the pERK assay, 3×10^6 cells/mL cryopreserved human and mouse cells were thawed rapidly in a 37° C. water bath and added to a T-225 flask containing 50 mL growth medium. The flasks were placed in a tissue culture incubator overnight (37° C., 5% CO2). The next day, cells were harvested with trypsin (Gibco Cat. #25300-054), resuspended in serum-containing growth medium and counted using a Cellometer and volume adjusted to a concentration of 0.5×10^6 cells/mL. Cells were plated into 384-well clear bottom tissue culture plates (BD Cat. #353962) at 50 μL/well, for a density of 25,000 cells/well using a MULTIDROP® and incubated for 16-18 hours (overnight) at 37° C. with 5% CO2. The next day, cells were washed once with 50 μL of PBS without Ca++/Mg++ (Gibco Cat. #14190-036) and serum starved in 25 μL of F-12 media without any serum or antibiotics for 2 hours at 37° C.Test compounds were 3-fold, 11-point serially diluted in DMSO in a REMP assay plate (Matrix Cat. #4307) by Tecan and 5 μL was transferred into an ECHO source plate (Labcyte Cat. #LC-0200). Cells were then stimulated with 40 nL of compound dilutions using ECHO liquid handler for 7 min at 37° C. […]

| EC50 [µM] | SMILES |
| --- | --- |
| 1.7 | O=C(O)C1CC1COc1ccc(-c2cccc(-c3ccccc3)c2)cc1 (configuration not stated) |
| 6.84 | O=C(O)C1CC1COc1ccc(-c2ccccc2-c2ccccc2)cc1 (configuration not stated) |
